# In patent US9187524B2, “Broad spectrum antibiotic arylomycin analogs” (The Scripps Research Institute, priority 2010, dated 2015):
# Legend:
# [1] = test system: S. epidermidis PAS9002 (SPase S31P); experiment: microbe, parasite or virus in culture; assay type: cell-based
# [2] = test system: S. epidermidis; experiment: Selection of arylomycin resistant S. epidermidis; assay type: cell-based; details: growth in the presence of 2 μg/ml (8×MIC)
structure (smiles),measurement,setting,value
CCCCCCCCCCCCCCCC(=O)N(C)[C@H](CO)C(=O)N[C@H](C)C(=O)NCC(=O)N(C)[C@@H]1C(=O)N[C@@H](C)C(=O)N[C@H](C(=O)O)Cc2ccc(O)c(c2)-c2cc1ccc2O [Arylomycin C16],MIC,"[1]; Staphylococcus epidermidis, read-out: MIC, S. epidermidis PAS9002",> 128 µg/mL
same,"fold elevated MIC compared to the wild type strain, Ser to Pro at position 31",[1]; remainder of selected S. epidermidis mutants,greater than 256 fold
same,frequency of resistant mutants,[2],4 per 109 viable cells
